In US9533990B2, “Inhibitors of secretion of hepatitis B virus antigens” (priority 2010, dated 2017):

Row | Structure (SMILES) | melting point [°C]
1 | Fc1ccc([C@H]2C[C@@H](c3c(F)cccc3Cl)n3ncnc3N2)c(F)c1 (relative stereo) [Example 35, cis-7-(2-Chloro-6-fluorophenyl)-5-(2,4-difluorophenyl)-4,5,6,7-tetrahydro-[1,2,4]triazolo[1,5-a]pyrimidine] | 225
2 | CCc1ccc(C2=CC(c3c(F)cccc3Cl)n3ncnc3N2)cc1 (centres unmarked) [Example 9, 7-(2-Chloro-6-fluorophenyl)-5-(4-ethylphenyl)-4,7-dihydro-[1,2,4]triazolo[1,5-a]pyrimidine] | 220 to 221
3 | Fc1cccc(Cl)c1[C@@H]1C[C@H](c2ccccn2)Nc2ncnn21 (relative stereo) [Example 38, cis-7-(2-Chloro-6-fluorophenyl)-5-(pyridin-2-yl)-4,5,6,7-tetrahydro-[1,2,4]triazolo[1,5-a]pyrimidine] | 232
4 | Fc1cccc(Cl)c1C1C=C(c2cccc(Cl)c2)Nc2ncnn21 (centres unmarked) [Example 6, 7-(2-Chloro-6-fluorophenyl)-5-(3-chlorophenyl)-4,7-dihydro-[1,2,4]triazolo[1,5-a]pyrimidine] | 246 to 248
5 | Fc1cccc(Cl)c1[C@@H]1C[C@H](c2ccc3ccccc3c2)Nc2ncnn21 (relative stereo) [Example 32, cis-7-(2-Chloro-6-fluorophenyl)-5-(naphthalen-2-yl)-4,5,6,7-tetrahydro-[1,2,4]triazolo[1,5-a]pyrimidine] | 224 to 225
6 | Fc1ccc([C@H]2C[C@@H](c3c(F)cccc3Cl)n3ncnc3N2)cc1 (relative stereo) [Example 27, cis-7-(2-Chloro-6-fluorophenyl)-5-(4-fluorophenyl)-4,5,6,7-tetrahydro-[1,2,4]triazolo[1,5-a]pyrimidine] | 240 to 241
7 | Fc1ccc([C@@H]2C[C@H](c3ccc(Cl)cc3)Nc3ncnn32)c(Cl)c1 (relative stereo) [Example 21, cis-7-(2-Chloro-4-fluorophenyl)-5-(4-chlorophenyl)-4,5,6,7-tetrahydro-[1,2,4]triazolo[1,5-a]pyrimidine] | 224 to 225
8 | Fc1cccc(Cl)c1C1C=C(c2ccccc2Cl)Nc2ncnn21 (centres unmarked) [Example 5, 7-(2-Chloro-6-fluorophenyl)-5-(2-chlorophenyl)-4,7-dihydro-[1,2,4]triazolo[1,5-a]pyrimidine] | 192 to 193
9 | Fc1cccc(Cl)c1[C@@H]1C[C@H](c2ccc(Cl)c(Cl)c2)Nc2ncnn21 (relative stereo) [Example 33, cis-7-(2-Chloro-6-fluorophenyl)-5-(3,4-dichlorophenyl)-4,5,6,7-tetrahydro-[1,2,4]triazolo[1,5-a]pyrimidine] | 252 to 254
10 | Fc1cccc(Cl)c1[C@@H]1C[C@H](c2ccc(Br)cc2)Nc2ncnn21 (relative stereo) [Example 28, cis-5-(4-Bromophenyl)-7-(2-chloro-6-fluorophenyl)-4,5,6,7-tetrahydro-[1,2,4]triazolo[1,5-a]pyrimidine] | 246 to 247
11 | CCc1ccc([C@H]2C[C@@H](c3c(F)cccc3Cl)n3ncnc3N2)cc1 (relative stereo) [Example 29, cis-7-(2-Chloro-6-fluorophenyl)-5-(4-ethylphenyl)-4,5,6,7-tetrahydro-[1,2,4]triazolo[1,5-a]pyrimidine] | 230 to 231
12 | Fc1ccc(C2=CC(c3c(F)cccc3Cl)n3ncnc3N2)cc1 (centres unmarked) [Example 7, 7-(2-Chloro-6-fluorophenyl)-5-(4-fluorophenyl)-4,7-dihydro-[1,2,4]triazolo[1,5-a]pyrimidine] | 203 to 204
13 | Clc1ccc([C@H]2C[C@@H](c3c(Cl)cccc3Cl)n3ncnc3N2)cc1 (relative stereo) [Example 19, cis-5-(4-Chlorophenyl)-7-(2,6-dichlorophenyl)-4,5,6,7-tetrahydro-[1,2,4]triazolo[1,5-a]pyrimidine] | 246 to 247
14 | Clc1ccc(C2=CC(c3c(Cl)cccc3Cl)n3ncnc3N2)cc1 (centres unmarked) [Example 2, 5-(4-Chlorophenyl)-7-(2,6-dichlorophenyl)-4,7-dihydro-[1,2,4]triazolo[1,5-a]pyrimidine] | 235
15 | Fc1cccc(Cl)c1C1C=C(c2ccc(Cl)c(Cl)c2)Nc2ncnn21 (centres unmarked) [Example 13, 7-(2-Chloro-6-fluorophenyl)-5-(3,4-dichlorophenyl)-4,7-dihydro-[1,2,4]triazolo[1,5-a]pyrimidine] | 246 to 247
16 | Fc1ccc(C2=CC(c3c(F)cccc3Cl)n3ncnc3N2)c(F)c1 (centres unmarked) [Example 15, 7-(2-Chloro-6-fluorophenyl)-5-(2,4-difluorophenyl)-4,7-dihydro-[1,2,4]triazolo[1,5-a]pyrimidine] | 186 to 188
17 | Fc1cccc(Cl)c1C1C=C(c2ccc3ccccc3c2)Nc2ncnn21 (centres unmarked) [Example 12, 7-(2-Chloro-6-fluorophenyl)-5-(naphthalen-2-yl)-4,7-dihydro-[1,2,4]triazolo[1,5-a]pyrimidine] | 237
18 | Fc1cccc(Cl)c1C1C=C(c2ccc(Cl)cc2)Nc2ncnn21 (centres unmarked) [Example 1, 7-(2-Chloro-6-fluorophenyl)-5-(4-chlorophenyl)-4,7-dihydro-[1,2,4]triazolo[1,5-a]pyrimidine] | 213 to 215
19 | Fc1cccc(Cl)c1[C@@H]1C[C@H](c2cccc(Cl)c2)Nc2ncnn21 (relative stereo) [Example 26, cis-7-(2-Chloro-6-fluorophenyl)-5-(3-chlorophenyl)-4,5,6,7-tetrahydro-[1,2,4]triazolo[1,5-a]pyrimidine] | 262 to 263
20 | Fc1cccc(Cl)c1C1C=C(c2ccc(Br)cc2)Nc2ncnn21 (centres unmarked) [Example 8, 5-(4-Bromophenyl)-7-(2-chloro-6-fluorophenyl)-4,7-dihydro-[1,2,4]triazolo[1,5-a]pyrimidine] | 242 to 243
21 | Fc1cccc(Cl)c1C1C=C(c2ccc(Cl)cc2Cl)Nc2ncnn21 (centres unmarked) [Example 14, 7-(2-Chloro-6-fluorophenyl)-5-(2,4-dichlorophenyl)-4,7-dihydro-[1,2,4]triazolo[1,5-a]pyrimidine] | 209 to 211
22 | Fc1cccc(Cl)c1C1C=C(c2ccc(-c3ccccc3)cc2)Nc2ncnn21 (centres unmarked) [Example 11, 5-([1,1′-Biphenyl]-4-yl)-7-(2-chloro-6-fluorophenyl)-4,7-dihydro-[1,2,4]triazolo[1,5-a]pyrimidine] | 267
23 | Clc1ccc([C@H]2C[C@@H](c3ccccc3)n3ncnc3N2)cc1 (relative stereo) [Example 24, cis-5-(4-Chlorophenyl)-7-phenyl-4,5,6,7-tetrahydro-[1,2,4]triazolo[1,5-a]pyrimidine] | 210 to 212
24 | Fc1cccc(Cl)c1[C@@H]1C[C@H](c2ccc(-c3ccccc3)cc2)Nc2ncnn21 (relative stereo) [Example 31, cis-5-([1,1′-Biphenyl]-4-yl)-7-(2-chloro-6-fluorophenyl)-4,5,6,7-tetrahydro-[1,2,4]triazolo[1,5-a]pyrimidine] | 213 to 215

Next, values leading:

Row | melting point [°C] | Structure (SMILES)
25 | 217 to 218 | Cc1ccc(C2=CC(c3c(F)cccc3Cl)n3ncnc3N2)cc1C (centres unmarked) [Example 16, 7-(2-Chloro-6-fluorophenyl)-5-(3,4-dimethylphenyl)-4,7-dihydro-[1,2,4]triazolo[1,5-a]pyrimidine]
26 | 217 to 218 | COc1ccc(C2=CC(c3c(F)cccc3Cl)n3ncnc3N2)cc1 (centres unmarked) [Example 10, 7-(2-Chloro-6-fluorophenyl)-5-(4-methoxyphenyl)-4,7-dihydro-[1,2,4]triazolo[1,5-a]pyrimidine]
27 | 250 to 251 | Fc1ccc(C2C=C(c3ccc(Cl)cc3)Nc3ncnn32)c(Cl)c1 (centres unmarked) [Example 4, 7-(2-Chloro-4-fluorophenyl)-5-(4-chlorophenyl)-4,7-dihydro-[1,2,4]triazolo[1,5-a]pyrimidine]
28 | 270 to 271 | Fc1cccc(Cl)c1[C@@H]1C[C@H](c2ccccc2)Nc2ncnn21 (relative stereo) [Example 37, cis-7-(2-Chloro-6-fluorophenyl)-5-phenyl-4,5,6,7-tetrahydro-[1,2,4]triazolo[1,5-a]pyrimidine]
29 | 238 to 239 | Fc1cccc(Cl)c1-c1cc(-c2ccc(Cl)cc2)nc2ncnn12 [Example 17, 7-(2-Chloro-6-fluorophenyl)-5-(4-chlorophenyl)-[1,2,4]triazolo[1,5-a]pyrimidine]
30 | 223 | Cc1ccc([C@H]2C[C@@H](c3c(F)cccc3Cl)n3ncnc3N2)cc1C (relative stereo) [Example 36, cis-7-(2-Chloro-6-fluorophenyl)-5-(3,4-dimethylphenyl)-4,5,6,7-tetrahydro-[1,2,4]triazolo[1,5-a]pyrimidine]
31 | 202 to 204 | Clc1ccc([C@H]2C[C@@H](c3ccccc3Cl)n3ncnc3N2)cc1 (relative stereo) [Example 22, cis-7-(2-Chlorophenyl)-5-(4-chlorophenyl)-4,5,6,7-tetrahydro[1,2,4]triazolo[1,5-a]pyrimidine]
32 | 271 to 272 | Fc1cccc(Cl)c1[C@@H]1C[C@H](c2ccccc2Cl)Nc2ncnn21 (relative stereo) [Example 25, cis-7-(2-Chloro-6-fluorophenyl)-5-(2-chlorophenyl)-4,5,6,7-tetrahydro-[1,2,4]triazolo[1,5-a]pyrimidine]
33 | 267 to 269 | Fc1cccc(Cl)c1[C@@H]1C[C@H](c2ccc(Cl)cc2Cl)Nc2ncnn21 (relative stereo) [Example 34, cis-7-(2-Chloro-6-fluorophenyl)-5-(2,4-dichlorophenyl)-4,5,6,7-tetrahydro-[1,2,4]triazolo[1,5-a]pyrimidine]
34 | 194 to 195 | CC(C)c1ccc([C@@H]2C[C@H](c3ccc(Cl)cc3)Nc3ncnn32)cc1 (relative stereo) [Example 23, cis-5-(4-Chlorophenyl)-7-(4-isopropylphenyl)-4,5,6,7-tetrahydro[1,2,4]triazolo[1,5-a]pyrimidine]
35 | 221 to 222 | COc1ccc([C@H]2C[C@@H](c3c(F)cccc3Cl)n3ncnc3N2)cc1 (relative stereo) [Example 30, cis-7-(2-Chloro-6-fluorophenyl)-5-(4-methoxyphenyl)-4,5,6,7-tetrahydro-[1,2,4]triazolo[1,5-a]pyrimidine]
